Measurements: ChEMBL document CHEMBL1201862, “PubChem BioAssay data set” (2004)
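Test compounds were applied to cells in 96-well plates for 48 hours at 5 doses. At the GI50, growth is halved.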 Calls of active or inactive are those of the source. Cut-off read from the data, not from the text of the source: active = GI50 up to about 1.1 µM and inactive = higher.

Legend:
Assay in all cases: NCI-60 cell line screen, 48 h
OVCAR-3 = system: OVCAR-3
OVCAR-5 = system: OVCAR-5
CAKI-1 = system: CAKI-1
A549 = system: A549
SN12C = system: SN12C
SF-539 = system: SF-539
Hs-578T = system: Hs-578T
NCI-H460 = system: NCI-H460
LOX IMVI = system: LOX IMVI
OVCAR-4 = system: OVCAR-4
TK-10 = system: TK-10
SK-MEL-5 = system: SK-MEL-5
UACC-257 = system: UACC-257
Malme-3M = system: Malme-3M
SF-295 = system: SF-295
SK-MEL-28 = system: SK-MEL-28
M14 = system: M14
MDA-N = system: MDA-N
SK-OV-3 = system: SK-OV-3
HT-29 = system: HT-29
UACC-62 = system: UACC-62
IGROV-1 = system: IGROV-1
MOLT-4 = system: MOLT-4
KM12 = system: KM12
UO-31 = system: UO-31
HCC 2998 = system: HCC 2998
PC-3 = system: PC-3
NCI-H23 = system: NCI-H23
BT-549 = system: BT-549
SNB-19 = system: SNB-19
MCF7 = system: MCF7
NCI-H226 = system: NCI-H226
SNB-75 = system: SNB-75
T47D = system: T47D
K562 = system: K562
CCRF-CEM = system: CCRF-CEM
HOP-92 = system: HOP-92
OVCAR-8 = system: OVCAR-8
SF-268 = system: SF-268
HCT-15 = system: HCT-15
ACHN = system: ACHN
HCT-116 = system: HCT-116
SK-MEL-2 = system: SK-MEL-2
SW-620 = system: SW-620
NCI-H522 = system: NCI-H522
DU-145 = system: DU-145
786-0 = system: 786-0
HOP-62 = system: HOP-62
COLO 205 = system: COLO 205
MDA-MB-435 = system: MDA-MB-435
A498 = system: A498
MDA-MB-231 = system: MDA-MB-231
EKVX = system: EKVX
NCI/ADR-RES = system: NCI/ADR-RES
RXF 393 = system: RXF 393
RPMI-8226 = system: RPMI-8226
HL-60 = system: HL-60
U-251 = system: U-251
SR = system: SR

SMILES: Clc1ccc(CSCc2ccc(Cl)cc2Cl)c(Cl)c1
- GI50 (OVCAR-3): 88.3 µM (inactive)
- GI50 (OVCAR-5): > 100 µM (inactive)
- GI50 (CAKI-1): 86.1 µM (inactive)
- GI50 (A549): 34.3 µM (inactive)
- GI50 (SN12C): > 100 µM (inactive)
- GI50 (SF-539): > 100 µM (inactive)
- GI50 (Hs-578T): 79.4 µM (inactive)
- GI50 (NCI-H460): 95.9 µM (inactive)
- GI50 (LOX IMVI): 36.1 µM (inactive)
- GI50 (OVCAR-4): 36.4 µM (inactive)
- GI50 (TK-10): > 100 µM (inactive)
- GI50 (SK-MEL-5): 29.9 µM (inactive)
- GI50 (UACC-257): 25.6 µM (inactive)
- GI50 (Malme-3M): 28.2 µM (inactive)
- GI50 (SF-295): 37.3 µM (inactive)
- GI50 (SK-MEL-28): 79.6 µM (inactive)
- GI50 (M14): 79.8 µM (inactive)
- GI50 (MDA-N): 38.8 µM (inactive)
- GI50 (SK-OV-3): > 100 µM (inactive)
- GI50 (HT-29): 29.9 µM (inactive)
- GI50 (UACC-62): 50 µM (inactive)
- GI50 (IGROV-1): 41.8 µM (inactive)
- GI50 (MOLT-4): 19.4 µM (inactive)
- GI50 (KM12): 40.2 µM (inactive)
- GI50 (UO-31): > 100 µM (inactive)
- GI50 (HCC 2998): 26.3 µM (inactive)
- GI50 (PC-3): 44.1 µM (inactive)
- GI50 (NCI-H23): 78.5 µM (inactive)
- GI50 (BT-549): 97.5 µM (inactive)
- GI50 (SNB-19): > 100 µM (inactive)
- GI50 (MCF7): 27.7 µM (inactive)
- GI50 (NCI-H226): > 100 µM (inactive)
- GI50 (SNB-75): 48.3 µM (inactive)
- GI50 (T47D): 22.5 µM (inactive)
- GI50 (K562): 57.5 µM (inactive)
- GI50 (CCRF-CEM): 22.2 µM (inactive)
- GI50 (HOP-92): 54.2 µM (inactive)
- GI50 (OVCAR-8): > 100 µM (inactive)
- GI50 (SF-268): 71 µM (inactive)
- GI50 (HCT-15): 32.2 µM
- GI50 (ACHN): > 100 µM (inactive)
- GI50 (HCT-116): 41.4 µM (inactive)
- GI50 (SK-MEL-2): 21.3 µM (inactive)
- GI50 (SW-620): 42.8 µM (inactive)
- GI50 (NCI-H522): 24.8 µM (inactive)
- GI50 (DU-145): 39.6 µM (inactive)
- GI50 (786-0): 60.8 µM (inactive)
- GI50 (HOP-62): > 100 µM (inactive)
- GI50 (COLO 205): 65.8 µM (inactive)
- GI50 (MDA-MB-435): 41 µM (inactive)
- GI50 (A498): 40.2 µM (inactive)
- GI50 (MDA-MB-231): > 100 µM (inactive)
- GI50 (EKVX): 57.5 µM (inactive)
- GI50 (NCI/ADR-RES): > 100 µM (inactive)
- GI50 (RXF 393): 20 µM (inactive)
- GI50 (RPMI-8226): 28.1 µM (inactive)
- GI50 (HL-60): 39.7 µM (inactive)
- GI50 (U-251): 54 µM (inactive)

SMILES: CCC(CON(C)c1ccccc1)(SC)SC
- GI50 (OVCAR-5): > 100 µM (inactive)
- GI50 (CAKI-1): > 100 µM (inactive)
- GI50 (A549): > 100 µM (inactive)
- GI50 (SN12C): > 100 µM (inactive)
- GI50 (SF-539): > 100 µM (inactive)
- GI50 (Hs-578T): 80.2 µM (inactive)
- GI50 (NCI-H460): > 100 µM (inactive)
- GI50 (LOX IMVI): > 100 µM (inactive)
- GI50 (OVCAR-4): > 100 µM (inactive)
- GI50 (TK-10): > 100 µM (inactive)
- GI50 (SK-MEL-5): > 100 µM (inactive)
- GI50 (UACC-257): > 100 µM (inactive)
- GI50 (Malme-3M): 13.5 µM (inactive)
- GI50 (SF-295): > 100 µM (inactive)
- GI50 (SK-MEL-28): > 100 µM (inactive)
- GI50 (M14): > 100 µM (inactive)
- GI50 (MDA-N): > 100 µM (inactive)
- GI50 (SK-OV-3): > 100 µM (inactive)
- GI50 (HT-29): > 100 µM (inactive)
- GI50 (UACC-62): > 100 µM (inactive)
- GI50 (IGROV-1): > 100 µM (inactive)
- GI50 (MOLT-4): > 100 µM (inactive)
- GI50 (KM12): > 100 µM (inactive)
- GI50 (UO-31): 95.1 µM (inactive)
- GI50 (HCC 2998): > 100 µM (inactive)
- GI50 (PC-3): > 100 µM (inactive)
- GI50 (NCI-H23): > 100 µM (inactive)
- GI50 (BT-549): > 100 µM (inactive)
- GI50 (SNB-19): > 100 µM (inactive)
- GI50 (MCF7): > 100 µM (inactive)
- GI50 (NCI-H226): > 100 µM (inactive)
- GI50 (SNB-75): > 100 µM (inactive)
- GI50 (T47D): 13.3 µM (inactive)
- GI50 (CCRF-CEM): > 100 µM (inactive)
- GI50 (HOP-92): > 100 µM (inactive)
- GI50 (OVCAR-8): > 100 µM (inactive)
- GI50 (SF-268): > 100 µM (inactive)
- GI50 (HCT-15): > 100 µM
- GI50 (ACHN): > 100 µM (inactive)
- GI50 (HCT-116): > 100 µM (inactive)
- GI50 (SK-MEL-2): 28.7 µM (inactive)
- GI50 (SW-620): > 100 µM (inactive)
- GI50 (NCI-H522): > 100 µM (inactive)
- GI50 (DU-145): 82.6 µM (inactive)
- GI50 (786-0): > 100 µM (inactive)
- GI50 (HOP-62): > 100 µM (inactive)
- GI50 (COLO 205): > 100 µM (inactive)
- GI50 (MDA-MB-435): > 100 µM (inactive)
- GI50 (MDA-MB-231): > 100 µM (inactive)
- GI50 (EKVX): > 100 µM (inactive)
- GI50 (NCI/ADR-RES): > 100 µM (inactive)
- GI50 (SR): > 100 µM (inactive)
- GI50 (RPMI-8226): > 100 µM (inactive)
- GI50 (HL-60): 99.1 µM (inactive)
- GI50 (U-251): > 100 µM (inactive)

SMILES: CC1=NN(c2ccccc2Cl)C2(C1)SCC(=O)N2c1nc2ccccc2s1 (stereo not drawn)
- GI50 (OVCAR-3): > 100 µM (inactive)
- GI50 (OVCAR-5): > 100 µM (inactive)
- GI50 (CAKI-1): > 100 µM (inactive)
- GI50 (A549): > 100 µM (inactive)
- GI50 (SN12C): > 100 µM (inactive)
- GI50 (SF-539): > 100 µM (inactive)
- GI50 (Hs-578T): > 100 µM (inactive)
- GI50 (NCI-H460): > 100 µM (inactive)
- GI50 (LOX IMVI): > 100 µM (inactive)
- GI50 (OVCAR-4): > 100 µM (inactive)
- GI50 (TK-10): > 100 µM (inactive)
- GI50 (SK-MEL-5): > 100 µM (inactive)
- GI50 (UACC-257): > 100 µM (inactive)
- GI50 (Malme-3M): > 100 µM (inactive)
- GI50 (SF-295): > 100 µM (inactive)
- GI50 (SK-MEL-28): > 100 µM (inactive)
- GI50 (M14): > 100 µM (inactive)
- GI50 (MDA-N): > 100 µM (inactive)
- GI50 (SK-OV-3): > 100 µM (inactive)
- GI50 (HT-29): > 100 µM (inactive)
- GI50 (UACC-62): > 100 µM (inactive)
- GI50 (IGROV-1): > 100 µM (inactive)
- GI50 (KM12): > 100 µM (inactive)
- GI50 (UO-31): > 100 µM (inactive)
- GI50 (HCC 2998): > 100 µM (inactive)
- GI50 (PC-3): > 100 µM (inactive)
- GI50 (NCI-H23): > 100 µM (inactive)
- GI50 (BT-549): > 100 µM (inactive)
- GI50 (SNB-19): > 100 µM (inactive)
- GI50 (MCF7): > 100 µM (inactive)
- GI50 (NCI-H226): > 100 µM (inactive)
- GI50 (SNB-75): > 100 µM (inactive)
- GI50 (T47D): > 100 µM (inactive)
- GI50 (K562): > 100 µM (inactive)
- GI50 (HOP-92): > 100 µM (inactive)
- GI50 (OVCAR-8): > 100 µM (inactive)
- GI50 (SF-268): > 100 µM (inactive)
- GI50 (HCT-15): > 100 µM
- GI50 (ACHN): > 100 µM (inactive)
- GI50 (HCT-116): > 100 µM (inactive)
- GI50 (SK-MEL-2): > 100 µM (inactive)
- GI50 (SW-620): > 100 µM (inactive)
- GI50 (NCI-H522): > 100 µM (inactive)
- GI50 (DU-145): > 100 µM (inactive)
- GI50 (786-0): > 100 µM (inactive)
- GI50 (HOP-62): > 100 µM (inactive)
- GI50 (COLO 205): > 100 µM (inactive)
- GI50 (MDA-MB-435): > 100 µM (inactive)
- GI50 (A498): > 100 µM (inactive)
- GI50 (MDA-MB-231): > 100 µM (inactive)
- GI50 (EKVX): > 100 µM (inactive)
- GI50 (NCI/ADR-RES): > 100 µM (inactive)
- GI50 (RXF 393): > 100 µM (inactive)
- GI50 (RPMI-8226): > 100 µM (inactive)
- GI50 (U-251): > 100 µM (inactive)
